Data: patent US20240298643A1, “BENZIMIDAZOLE COMPOUND OR SALT THEREOF, PREPARATION METHOD THEREFOR AND USE THEREOF, AND INSECTICIDE AND ACARICIDE AND USE THEREOF” (QINGDAO KANGQIAO PESTICIDES AND CHEMICALS GROUP CO., LTD., priority 2021, published 2024)

Tested on: Tetranychus cinnabarinus
Assay: acaricidal activity test, spraying kidney bean seedlings inoculated with mites
Format: in vivo
Conditions: sprayed on kidney bean seedlings, living mites counted after 72 hours, 25° C.
Procedure: This test example tested the acaricidal activity of the compounds prepared above, in particular against Tetranychus cinnabarinus, and a specific test process was as follows: • (1) compounds to be tested were dissolved with acetone, and the resulting solution was diluted with a 0.1 wt % Tween 80 aqueous solution to a desired concentration (see test examples 1-A to 1-D below in detail) to prepare medicaments, with the acetone content of not more than 5 wt %; • (2) one real leaf was removed from kidney bean seedlings grown to two real leaves, and the number of mites inoculated was investigated 24 hours after inoculation of Tetranychus cinnabarinus (the number of Tetranychus cinnabarinus inoculated for each kidney bean seedling was 50-150). The whole plants of three kidney bean seedlings were separately sprayed with the medicaments prepared in the step (1) by using a hand-held sprayer (the spray amount was 0.5 mL per plant). After the treatment, the kidney bean seedlings were placed in a constant temperature observation room (25° C.) for observation, the number of living mites was investigated after 72 hours, and the lethality was calculated: Lethality (%)=(the number of mites inoculated−the number of living mites after the medicaments are sprayed)/the number of mites inoculated×100.

SMILES | Lethality (6.25 mg/L) [%] | Lethality (25 mg/L) [%] | Lethality (100 mg/L) [%]
CCS(=O)(=O)n1c(-c2ccc(Cl)c(C(F)(F)F)c2)nc2ccccc21 [Compound 1-28] | 97 | 100 | 100
CCS(=O)(=O)n1c(-c2ccc(F)c(C(F)(F)F)c2)nc2ccccc21 [Compound 1-27] | 90 | 100 | 100
CCS(=O)(=O)n1c(-c2ccc(Cl)c(C(F)(F)F)c2)nc2cc(F)c(F)cc21 [Compound 1-57] | 92 | 100 | 100
CCS(=O)(=O)n1c(-c2ccccc2)nc2ccccc21 [KC1, reference compound] | – | 52 | 82
CCS(=O)(=O)n1c(-c2cc(Cl)cc(C(F)(F)F)c2)nc2ccccc21 [Compound 1-213] | 99 | 100 | 100
CCS(=O)(=O)n1c(-c2ccc(Cl)cc2)nc2ccccc21 [KC4, reference compound] | – | 57 | 37
CCS(=O)(=O)n1c(-c2cc(Br)cc(OC(F)(F)F)c2)nc2ccccc21 [Compound 1-186] | 100 | 100 | 100
CCS(=O)(=O)n1c(-c2cc(C(F)(F)F)cc(C(F)(F)F)c2)nc2cc(F)c(F)cc21 [Compound 1-257] | 98 | 100 | 100
CCS(=O)(=O)n1c(-c2ccccc2Cl)nc2ccccc21 [KC3, reference compound] | – | 70 | 88
CCS(=O)(=O)n1c(-c2cc([N+](=O)[O-])cc(C(F)(F)F)c2)nc2ccccc21 [Compound 1-235] | 99 | 99 | 100
CCCCS(=O)(=O)n1c(-c2cc(C(F)(F)F)cc(C(F)(F)F)c2)nc2ccccc21 [Compound 1-255] | 91 | 100 | 100
CCS(=O)(=O)n1c(-c2cc(Cl)cc(OC(F)(F)F)c2)nc2ccccc21 [Compound 1-239] | 100 | 100 | 100
CCS(=O)(=O)n1c(-c2cc(Cl)cc(Cl)c2)nc2ccccc21 [KC6, reference compound] | – | 86 | 100
CCS(=O)(=O)n1c(-c2cc(C(F)(F)F)cc(C(F)(F)F)c2)nc2ccccc21 [Compound 1-47] | 99 | 100 | 100
CCS(=O)(=O)n1c(-c2cc(C(F)(F)F)cc(C(F)(F)F)c2)nc2cc(Cl)c(Cl)cc21 [Compound 1-265] | 100 | 100 | 100
CCS(=O)(=O)n1c(-c2ccccc2F)nc2ccccc21 [KC2, reference compound] | – | 49 | 98
CCS(=O)(=O)n1c(-c2ccc(F)c(C(F)(F)F)c2)nc2cc(F)c(F)cc21 [Compound 1-56] | 95 | 100 | 100
CCS(=O)(=O)n1c(-c2cc(Br)cc(C(F)(F)F)c2)nc2ccccc21 [Compound 1-214] | 97 | 100 | 100
CCS(=O)(=O)n1c(-c2cc(F)cc(C(F)(F)F)c2)nc2ccccc21 [Compound 1-174] | 98 | 98 | 100
CCS(=O)(=O)n1c(-c2ccc(F)cc2)nc2ccccc21 [KC5, reference compound] | – | 40 | 66
CCS(=O)(=O)n1c(-c2cc(C#N)cc(C(F)(F)F)c2)nc2ccccc21 [Compound 1-218] | 98 | 99 | 100
CCCS(=O)(=O)n1c(-c2cc(C(F)(F)F)cc(C(F)(F)F)c2)nc2ccccc21 [Compound 1-254] | 97 | 100 | 100
CS(=O)(=O)n1c(-c2cc(Cl)cc(C(F)(F)F)c2)nc2ccccc21 [Compound 1-133] | 99 | 100 | 100
